Data set [1] deals with Patients with Major Depressive Disorder (MDD). Description: Case Study 1: outpatient treatment of chronic suicidal ideation and behavior. It counts as in vivo, human. As for the experimental part:
Treatment of Chronic Suicidal Ideation and Behavior in Patients with Major Depressive Disorder (MDD). A married person and parent of three, presented to the outpatient clinic Jul. 16, 2019 to establish care with a new psychiatrist for management of their depression, mood swings, and persistent suicidal ideations. They reported that their current medications, bupropion XL 300 mg q daily, valproic acid 500 mg BID, quetiapine 200 mg daily, and venlafaxine XR 150 mg BID, modafinil 200 mg q AM and noon, buspirone 10 mg TID are not helping. They had been experiencing acute daily changes in mood consisting of unhappiness, irritability, and anger with lead to arguments with their spouse and family. They had been suffering from persistent depression, self-harm, and suicidal impulses. They had three previous suicide attempts resulting in hospitalization, the most recent being six years prior. • During the Initial Psychiatric Evaluation, they were alert and oriented to person, place, time, and situation. […]

Data set [2] has the same test system. Description: Case 2: outpatient treatment of persistent suicidal ideation. It counts as in vivo, human. An excerpt:
Treatment of Chronic Suicidal Ideation and Behavior in Patients with Major Depressive Disorder (MDD).
A person presented to the outpatient psychiatric clinic accompanied by their spouse and child after being referred by a friend. Their condition had not improved over the past several years despite ongoing psychiatric treatment including in-patient hospitalizations and multiple medication failures. They reported they had been, “feeling the stress”, experiencing racing and ruminating thoughts, difficulty with conversation, and panic. They expressed persistent suicidal ideation. They denied current or past self-injurious behavior.
• Sensorium: Alert and oriented to person, place, time, situation • Appearance: Casually dressed, well kempt, appeared older than stated age, thin to normal body habitus • Affect: Constricted, tearful at times • Mood: Depressed • Speech: Normal rate, tone, and rhythm. Louder when irritable and argumentative • Thought Content: Passive suicidal ideation, no delusions. • Thought Process: Coherent, logical, mildly circumstantial. • Perception: No auditory or visual hallucinations • Memory: Intact • Abstract Thinking: Intact • Judgment: Fair to good • Insight: Good
During their initial psychiatric evaluation, they were diagnosed with Bipolar Disorder, Unspecified; Rule out Amphetamine-induced psychosis due to their intermittent paranoia, impulsivity, and agitation. […]

As for `CCc1nn(CCCN2CCN(c3cccc(Cl)c3)CC2)c(=O)n1CCOc1ccccc1` [nefazodone, 1-(3-[4-(3-chlorophenyl)piperazin-1-yl]propyl)-3-ethyl-4-(2-phenoxyethyl)-1H-1,2,4-triazol-5 (4H)-one], the “suicidal ideations after forgetting and running out of nefazodone” value in data set [1] (Nov. 11, 2019, treatment interrupted) is “more suicidal ideations”. In addition, the side effect reported entry in data set [1] (suspected to be caused by increase in nefazodone to 200 mg BID) was “drowsiness”. Besides, the “suicidal thoughts after restarting nefazodone” value in data set [2] (nefazodone restarted and slightly increased, close follow up) is given as “rapid disappearance”. The “suicidal ideation after stopping nefazodone” value in data set [2] (nefazodone stopped for several weeks, after eight months of stability) is recorded as “having suicidal ideation”.

The values above are taken from patent US20240350483A1, “COMBINATION THERAPY FOR THE TREATMENT OF PSYCHIATRIC DISORDER” (GSKB Pharmaceuticals, LLC, priority 2023, published 2024).
